Source: patent publication US20210139517A1, “BICYCLIC HETEROARYL COMPOUNDS AND USES THEREOF” (Revolution Medicines, Inc., priority 2019, published 2021)

Key:
[1] = molecular target: T1, SOS1 nucleotide exchange of wild-type KRAS (SOS1 catalytic domain residues 564-1049; KRAS residue 1-169) (Homo sapiens, UniProt Q07889); experiment: Inhibition of SOS1 nucleotide exchange activity of KRAS (TR-FRET); assay type: biochemical; settings: SOS1 nucleotide exchange of wild-type KRAS; three replicates; four-parameter logistic fit; read-out: TR-FRET IC50
T1 sequence (Q07889 564-1049): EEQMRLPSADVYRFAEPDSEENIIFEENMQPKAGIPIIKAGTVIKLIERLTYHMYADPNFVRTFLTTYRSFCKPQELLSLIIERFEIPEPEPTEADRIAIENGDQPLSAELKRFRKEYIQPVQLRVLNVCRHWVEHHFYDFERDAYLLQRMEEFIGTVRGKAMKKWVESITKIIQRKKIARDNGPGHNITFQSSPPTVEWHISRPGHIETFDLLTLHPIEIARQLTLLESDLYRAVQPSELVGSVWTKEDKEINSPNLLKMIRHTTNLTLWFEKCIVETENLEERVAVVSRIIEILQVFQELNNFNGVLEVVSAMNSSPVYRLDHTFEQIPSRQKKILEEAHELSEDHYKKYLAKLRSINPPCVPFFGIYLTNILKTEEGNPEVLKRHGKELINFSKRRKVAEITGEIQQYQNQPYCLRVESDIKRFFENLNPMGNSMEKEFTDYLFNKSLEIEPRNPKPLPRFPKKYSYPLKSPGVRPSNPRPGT

[2] = molecular target: T2, SOS1 catalytic domain (residues 564-1049) (Homo sapiens, UniProt Q07889); experiment: SOS1 SPR binding affinity assay (Biacore 8K); settings: avi-tagged SOS1 catalytic domain immobilized on streptavidin chip; equilibrium 1:1 binding fit; read-out: SOS1 SPR Equilibrium Kd
T2 sequence (Q07889 564-1049): T1 sequence (Q07889 564-1049)

[3] = test system: SOS1 function in cells: cellular pERK in PC-9 cells (EGFR Ex19Del); experiment: pERK potency assay in PC-9 cells (AlphaLISA SureFire Ultra p-ERK1/2); assay type: cell-based; settings: Homo sapiens, PC-9, 1 h, 1 hour incubation
Procedure: The purpose of this assay is tomeasure the ability of test compounds to inhibit SOS1 function in cells. SOS1 activates RAS proteins by catalyzing the conversion of RAS-GDP to RAS-GTP in response to receptor tyrosine kinase activation. […] The procedure described below measures the level of cellular pERK in response to test compounds in PC-9 cells (EGFR Ex19Del).
PC-9 cells were grown and maintained using media and procedures recommended by the ATCC. On the day prior to compound addition, cells were plated in 384-well cell culture plates (40 μL/well) and grown overnight in a 37° C., 5% CO2 incubator. Test compounds were prepared in 10, 3-fold dilutions in DMSO, with a top concentration of 10 mM. On the day of the assay, 40 nL of test compound was added to each well of cell culture plate using an Echo550 liquid handler (LabCyte). Concentrations of test compound were tested in duplicate with highest test concentration being 10 μM. After compound addition, cells were incubated for 1 hour at 37° C., 5% CO2. Following incubation, culture medium was removed and cells were washed once with phosphate buffered saline.
Cellular pERK level was determined using the AlphaLISA SureFire Ultra p-ERK1/2 Assay Kit (PerkinElmer). Cells were lysed in 25 μL lysis buffer, with shaking at 600 RPM at room temperature for 15 minutes. Lysate (10 μL) was transferred to a 384-well Opti-plate (PerkinElmer) and 5 μL acceptor mix was added. The plate was centrifuged at 1000 RPM for 1 minute, and incubated in the dark for 2 hours. Following this incubation, 5 μL of donor mix was added, the plate was sealed and centrifuged at 1000 RPM for 1 minute, and the mixture was incubated for 2 hours at room temperature. Signal was read on an Envision plate reader (PerkinElmer) using standard AlphaLISA settings. Analysis of raw data was carried out in Excel (Microsoft) and Prism (GraphPad). Signal was plotted vs. the decadal logarithm of compound concentration, and IC50 was determined by fitting a 4-parameter sigmoidal concentration response model.

Row | SMILES | IC50 [1] [µM] | Kd [2] [µM] | IC50 [3] [µM]
1 | C[C@@H](Nc1ncnc2c1cc(N1CCOCC1)c(=O)n2C)c1cc(N)cc(C(F)(F)F)c1 [Example 12, 4-{[(1R)-1-[3-amino-5-(trifluoromethyl)phenyl]ethyl]amino}-8-methyl-6-(morpholin-4-yl)-7H,8H-pyrido[2,3-d]pyrimidin-7-one] | 0.0136 | 0.00794 | 0.101
2 | C[C@@H](Nc1ncnc2c1cc(N1CCOCC1)c(=O)n2C)c1cccc(C(F)(F)F)c1 [Example 13, 8-methyl-6-(morpholin-4-yl)-4-{[(1R)-1-[3-(trifluoromethyl)phenyl]-ethyl]amino}-7H,8H-pyrido[2,3-d]pyrimidin-7-one] | 0.0294 | 0.0283 | 0.321
3 | CC(=O)N1CCC(c2cc3c(N[C@H](C)c4cc(C(F)(F)F)cc(N)c4F)ncnc3n(C)c2=O)CC1 [Example 15, 6-(1-acetyl-4-piperidyl)-4-[[(1R)-1-[3-amino-2-fluoro-5-(trifluoromethyl)phenyl]ethyl]amino]-8-methyl-pyrido[2,3-d]pyrimidin-7-one] | 0.0904 | 0.168 | 0.391
4 | Cc1nc(N[C@H](C)c2cccc(C(F)F)c2F)c2cc(C3CCN(C)CC3F)c(=O)n(C)c2n1 (stereo partly drawn) [Example 18, 4-[[(1R)-1-[3-(difluoromethyl)-2-fluoro-phenyl]ethyl]amino]-6-(3-fluoro-1-methyl-4-piperidyl)-2,8-dimethyl-pyrido[2,3-d]pyrimidin-7-one] | 0.00579 | 0.016 | 0.19
5 | CC(=O)N1CCC(c2cc3c(N[C@H](C)c4cc(N)cc(C(F)(F)F)c4F)ncnc3n(C)c2=O)CC1 [Example 19, 6-(1-acetyl-4-piperidyl)-4-[[(1R)-1-[5-amino-2-fluoro-3-(trifluoromethyl)phenyl]ethyl]amino]-8-methyl-pyrido[2,3-d]pyrimidin-7-one] | 0.0123 | 0.0324 | 0.0492
6 | C[C@@H](Nc1ncnc2c1cc(-c1ccnnc1)c(=O)n2C)c1cccc(C(F)F)c1F [Example 21, (R)-4-((1-(3-(difluoromethyl)-2-fluorophenyl)ethyl)amino)-8-methyl-6-(pyridazin-4-yl)pyrido[2,3-d]pyrimidin-7(8H)-one] | 0.018 | 0.0327 | 0.136
7 | C[C@@H](Nc1ncnc2c1cc(C1(N)CCOCC1)c(=O)n2C)c1cccc(C(F)F)c1F [Example 31, 6-(4-aminooxan-4-yl)-4-{[(1R)-1-[3-(difluoromethyl)-2-fluorophenyl]ethyl]amino}-8-methyl-7H,8H-pyrido-[2,3-d]pyrimidin-7-one] | 0.0315 | 0.0428 | –
8 | CO[C@]1(c2cc3c(N[C@H](C)c4cccc(C(F)F)c4F)ncnc3n(C)c2=O)CCN(C(C)=O)C1 [Example 32-19] | 0.00882 | 0.00692 | –
9 | C[C@@H](Nc1ncnc2c1cc(C1CC3(C1)CS(=O)(=O)C3)c(=O)n2C)c1cccc(C(F)F)c1F [Example 33, 6-(4-{[(1R)-1-[3-(difluoromethyl)-2-fluorophenyl]ethyl]amino}-8-methyl-7-oxo-7H,8H-pyrido[2,3-d]pyrimi-din-6-yl)-2λ^6-thiaspiro[3.3]heptane-2,2-dione] | 0.0295 | 0.0334 | –
10 | C[C@@H](Nc1ncnc2c1cc(C1CCNCC1O)c(=O)n2C)c1cccc(C(F)F)c1F (stereo partly drawn) [Example 34, 4-(((R)-1-(3-(difluoromethyl)-2-fluorophenyl)ethyl)amino)-6-(3-hydroxypiperidin-4-yl)-8-methylpyrido[2,3-d]pyrimidin-7(8H)-one] | 0.0627 | 0.0729 | –
